Source: patent US10398142B2, “Polycationic amphiphiles as antimicrobial agents” (priority 2013, dated 2019)
Where two headings read alike, the source gives them in different places.

What was measured:
[1] = test system: Pseudomonas aeruginosa (PAO1); test: Minimum inhibitory concentration (MIC), broth microdilution; assay type: cell-based
Experimental: (§1) The term “minimum inhibitory concentration (MIC)” means the lowest concentration of an antimicrobial agent that will inhibit the visible growth of a microorganism after overnight incubation. MIC values against bacteria, for example, the Gram-positive Staphylococcus aureus and Enterococcus faecalis and the Gram-negative Escherichia coli and Pseudomonas aeruginosa were determined by standard methods.
(§2) With nearly three-dozen amphiphiles varying in structure and cationic nature synthesized, minimum inhibitory concentration (MIC) values against the Gram-positive Staphylococcus aureus and Enterococcus faecalis and the Gram-negative Escherichia coli and Pseudomonas aeruginosa were determined by standard methods. […] The commercially available antibacterial agent benzalkonium chloride (benzyldimethyldodecylammonium chloride, Bn,12) was tested for comparison. The broth microdilution for determining MIC values was performed as previously reported.
(§3) Different biological assays were performed. […] All cultures, with the exception of E. faecalis, were grown with shaking at 250 rpm.
(§4) Minimum inhibitory concentration (MIC) values against bacteria were measured using standard method. Compounds were serially diluted two-fold from an aqueous stock solution to yield twelve test concentrations. Overnight S. aureus, E. faecalis, E. coli, P. aeruginosa, CA-MRSA, and HA-MRSA cultures diluted to ca. 10^6 cfu/mL in Mueller-Hinton media and 100 μL were inoculated into each well of a U-bottom 96-well plate (BD Biosciences, BD351177) containing 100 μL of compound solution. Plates were incubated statically at 37° C. for 72 hours upon which time wells were evaluated visually for bacterial growth. The MIC was determined as the lowest concentration of compound resulting in no bacterial growth visible to the naked eye, based on the majority of three independent experiments. Positive and negative aqueous and media controls were conducted for each trial.

[2] = test system: Enterococcus faecalis (OG1RF); test: as above; assay type: cell-based; details: read-out: MIC E. faecalis
Experimental: as §1, §2, §3, §4

[3] = test system: Staphylococcus aureus MSSA (SH1000); test: as above; assay type: cell-based; details: read-out: MIC S. aureus
Experimental: as §1, §2, §3, §4

[4] = test system: Escherichia coli (MC4100); test: as above; assay type: cell-based; details: read-out: MIC E. coli
Experimental: as §1, §2, §3, §4

E. faecalis biofilms = test: Minimum biofilm eradication concentration (MBEC), regrowth assay; assay type: cell-based, Enterococcus faecalis; details: for MBEC E. faecalis: Table 2, pre-established biofilm, ± values varied between 50 and 100 μM for the six trials; for eradication of E. faecalis biofilms (in words): at the concentrations tested
From the text: (§5) A regrowth assay was used to establish the MBEC of a compound to evaluate the antibiofilm activity. See also H. Ceri, M. Olson, D. Morck, D. Storey, R. Read, A. Buret, B. Olson, Methods Enzymol. 2001, 337, 377.
(§6) Encouraged by the potency of the QACs against planktonic bacterial cells, the inventors then evaluated the efficacy of compound (12,2,12) against Staphylococcus aureus and Enterococcus faecalis biofilms. […] To both accurately evaluate the antibiofilm activity, a regrowth assay was utilized to establish the minimum biofilm eradication concentration (MBEC) of each compound.
(§7) Different biological assays were performed. For all biological assays, laboratory strains of methicillin-susceptible Staphylococcus aureus MSSA (SH1000), Enterococcus faecalis (OG1RF), Escherichia coli (MC4100), Pseudomonas aeruginosa (PAO1), community-acquired methicillin-resistant Staphylococcus aureus CA-MRSA (USA300-0114), and hospital-acquired methicillin-resistant Staphylococcus aureus HA-MRSA (ATCC 33591) were grown at 37° C. overnight from freezer stocks in 10 mL of the media indicated for each assay. All cultures, with the exception of E. faecalis, were grown with shaking at 250 rpm.
(§8) Minimum biofilm eradication concentration (MBEC) was also measured. To each well of a flat-bottomed 96-well plate (Corning 3370), 8 μL of overnight bacterial culture was brought to a volume of 200 μL with fresh media (BHI for S. aureus and MRSA, Todd Hewitt (TH) for E. faecalis). Plates were incubated statically for 24 hours at 37° C. to establish biofilms. After 24 hours, the wells were carefully emptied by inverting the plate and gently shaking. A pre-mixed solution of media and aqueous compound stock solution was added to each well and plates were incubated at 37° C. 16 hours after pre-established biofilms were treated with compound, the media from each well was removed, biofilms were washed three times with 200 μL PBS to remove planktonic cells, and biofilms were incubated overnight at 37° C. in 200 μL of fresh media to allow any viable cells to continue growing. The wells were then vigorously pipetted to resuspend the biofilm cells and the OD at 595 nm was measured using a plate reader (POLARstar Omega, BMG Labtech). Biofilms reaching a final OD of less than 0.1 were considered eradicated and the lowest concentration of antibiotic corresponded to the MBEC. Four replicates were completed for each concentration of compound as well as positive and negative controls.

[5] = test system: S. aureus (MSSA, SH1000) biofilms; test: as above; assay type: cell-based, Staphylococcus aureus; details: for MBEC S. aureus: Table 2, pre-established biofilm, ± values varied between 50 and 100 μM for the six trials; for eradication of S. aureus biofilms (in words): at the concentrations tested
From the text: as §5, §6, §7, §8

[6] = Table 3, read-out: MIC P. aeruginosa
[7] = Table 1, read-out: MIC P. aeruginosa
[8] = Pseudomonas aeruginosa, PAO1, read-out: MIC P. aeruginosa

Compound	MIC [1, 6] [µM]	MIC ([2]; Table 3) [µM]	MIC ([3]; Table 3) [µM]	MIC ([4]; Table 3) [µM]	other results
C=CC[N+](C)(CC[N+](C)(C)CCCCCCCCCC)CC[N+](C)(C)CCCCCCCCCC.[Br-].[Br-].[Br-] [10, 2, 3A, 2, 10]	63	4	2	2	
CCCCCCCCCCCC[N+](C)(C)CCCCCCCCCCCC.[Br-] [12,12]					MBEC E. faecalis (E. faecalis biofilms): 200 µM; MBEC S. aureus [5]: >200 µM; MIC [1, 7]: 32 µM; MIC ([2]; Table 1): 1 µM; MIC ([3]; Table 1): 1 µM; MIC ([4]; Table 1): 8 µM
C=CC[N+](C)(CC[N+](C)(C)CCCCCCCCCCCCCCCC)CC[N+](C)(C)CCCCCCCCCCCCCCCC.[Br-].[Br-].[Br-] [16, 2, 3A, 2, 16]	16	4	4	8	
C=CC[N+](C)(CC[N+](C)(C)CCCCCCCCCCC)CC[N+](C)(C)CCCCCCCCCCC.[Br-].[Br-].[Br-] [11, 2, 3A, 2, 11]	16	2	1	2	
C[N+](C)(C)CCCCC[N+](C)(C)C [1,5,1]					MBEC E. faecalis (E. faecalis biofilms): >200 µM; eradication of E. faecalis biofilms (in words) (E. faecalis biofilms): unable to eradicate biofilms; MBEC S. aureus [5]: >200 µM; eradication of S. aureus biofilms (in words) [5]: unable to eradicate biofilms; MIC [1, 7]: >500 µM; MIC ([2]; Table 1): >500 µM; MIC ([3]; Table 1): >500 µM; MIC ([4]; Table 1): >500 µM
NCCCNCCCN [Norspermidine, reference compound]					MBEC E. faecalis (E. faecalis biofilms): >200 µM; MBEC S. aureus [5]: >200 µM; MIC [1, 8]: > 500 µM; MIC ([2]; Enterococcus faecalis): > 500 µM; MIC ([3]; Staphylococcus aureus, MSSA): > 500 µM; MIC ([4]; Escherichia coli): > 500 µM
CCCCCCCCCCCCCC[N+](C)(C)CC[N+](C)(C)CC[N+](C)(C)CCCCCCCCCCCCCC.[Br-].[Br-].[I-] [14, 2, 1, 2, 14]	8	1	1	2	
CCCCCCCCCCC[N+](C)(C)CCN(C)CC[N+](C)(C)CCCCCCCCCCC.[Br-].[Br-] [11, 2, 0, 2, 11]	8	2	2	2	
C=CC[N+](C)(CC[N+](C)(C)CCCCCCCCCCCCCC)CC[N+](C)(C)CCCCCCCCCCCCCC.[Br-].[Br-].[Br-] [14, 2, 3A, 2, 14]	8	2	2	2	
CCCCCCCCCCC[n+]1ccc(-c2cc[n+](CCCCCCCCCCC)cc2)cc1 [PQ-11,11]					MBEC E. faecalis (E. faecalis biofilms): 50 µM; MBEC S. aureus [5]: 50 µM; MIC [1, 8]: 4 µM; MIC ([2]; Enterococcus faecalis): 1 µM; MIC ([3]; Staphylococcus aureus, MSSA): 1 µM; MIC ([4]; Escherichia coli): 1 µM
CCCCCCCCCCC[N+](C)(C)CC[N+](C)(C)CC[N+](C)(C)CCCCCCCCCCC.[Br-].[Br-].[I-] [11, 2, 1, 2, 11]	8	2	2	4	
C[N+](C)(C)CC[N+](C)(C)C [1,2,1]					MBEC E. faecalis (E. faecalis biofilms): >200 µM; eradication of E. faecalis biofilms (in words) (E. faecalis biofilms): unable to eradicate biofilms; MBEC S. aureus [5]: >200 µM; eradication of S. aureus biofilms (in words) [5]: unable to eradicate biofilms; MIC [1, 7]: >500 µM; MIC ([2]; Table 1): >500 µM; MIC ([3]; Table 1): >500 µM; MIC ([4]; Table 1): >500 µM
CCCCCCCCCC[N+](C)(C)CC[N+](C)(C)CC[N+](C)(C)CCCCCCCCCC.[Br-].[Br-].[I-] [10, 2, 1, 2, 10]	63	8	2	8	

Further lines, with some results ahead:

MIC [1, 6] [µM]	MIC ([2]; Table 3) [µM]	MIC ([3]; Table 3) [µM]	MIC ([4]; Table 3) [µM]	Compound	other results
63	4	2	8	CCCCCCCCCC[N+](C)(C)CCCCC[N+](C)(C)CCCCCCCCCC.[Br-].[Br-] [10, 5, 10]	
8	1	1	2	CCCCCCCCCCCCCC[N+](C)(C)CCN(C)CCN(C)CC[N+](C)(C)CCCCCCCCCCCC.[Br-].[Br-] [N4-14,0,0, 12]	
8	1	1	2	CCCCCCCCCCCC[N+](C)(C)CCCCCCC[N+](C)(C)CCCCCCCCCCCC.[Br-].[Br-] [12, 7, 12]	
16	1	1	4	CCCCCCCCCCCCCC[N+](C)(C)CCCCC[N+](C)(C)CCCCCCCCCCCCCC.[Br-].[Br-] [14, 5, 14]	
16	1	2	2	CCCCCCCCCCCCCC[N+](C)(C)CCN(C)CCN(C)CC[N+](C)(C)CCCCCCCCCCCCCC.[Br-].[Br-] [N4-14,0,0, 14]	
32	2	4	16	CCCCCCCCCCCCCCCC[N+](C)(C)CCN(C)CC[N+](C)(C)CCCCCCCCCCCCCCCC.[Br-].[Br-] [16, 2, 0, 2, 16]	
32	8	8	8	CCCCCCCCCCCC[N+](C)(C)CCN(C)CCN(C)CCN(C)C.[Br-] [N4-12,0,0, 0]	
16	1	2	4	CCCCCCCCCCCCCC[N+](C)(C)CCN(C)CC[N+](C)(C)CCCCCCCCCCCCCC.[Br-].[Br-] [14, 2, 0, 2, 14]	
125	16	16	32	CCCCCCCCCCCCCC[N+](C)(C)CCN(C)CCN(C)CCN(C)C.[Br-] [N4-14,0,0, 0]	
63	8	2	8	CCCCCCCCCC[N+](C)(C)CCN(C)CC[N+](C)(C)CCCCCCCCCC.[Br-].[Br-] [10, 2, 0, 2, 10]	
